Here are results for nine compounds from US10406146B2, “Heterocyclic compound” (TAKEDA PHARMACEUTICAL COMPANY LIMITED, priority 2015, dated 2019).

Common to all, as to type: biochemical
In one experiment the target is T1, HDAC6 enzyme (Homo sapiens, UniProt Q9UBN7).
T1 construct: transducing full length HDAC1 and HDAC6 genes into Sf-9 insect cells; GST; purchased SignalChem; host or cells: Sf-9 insect cells
T1 sequence (Q9UBN7 1-1215): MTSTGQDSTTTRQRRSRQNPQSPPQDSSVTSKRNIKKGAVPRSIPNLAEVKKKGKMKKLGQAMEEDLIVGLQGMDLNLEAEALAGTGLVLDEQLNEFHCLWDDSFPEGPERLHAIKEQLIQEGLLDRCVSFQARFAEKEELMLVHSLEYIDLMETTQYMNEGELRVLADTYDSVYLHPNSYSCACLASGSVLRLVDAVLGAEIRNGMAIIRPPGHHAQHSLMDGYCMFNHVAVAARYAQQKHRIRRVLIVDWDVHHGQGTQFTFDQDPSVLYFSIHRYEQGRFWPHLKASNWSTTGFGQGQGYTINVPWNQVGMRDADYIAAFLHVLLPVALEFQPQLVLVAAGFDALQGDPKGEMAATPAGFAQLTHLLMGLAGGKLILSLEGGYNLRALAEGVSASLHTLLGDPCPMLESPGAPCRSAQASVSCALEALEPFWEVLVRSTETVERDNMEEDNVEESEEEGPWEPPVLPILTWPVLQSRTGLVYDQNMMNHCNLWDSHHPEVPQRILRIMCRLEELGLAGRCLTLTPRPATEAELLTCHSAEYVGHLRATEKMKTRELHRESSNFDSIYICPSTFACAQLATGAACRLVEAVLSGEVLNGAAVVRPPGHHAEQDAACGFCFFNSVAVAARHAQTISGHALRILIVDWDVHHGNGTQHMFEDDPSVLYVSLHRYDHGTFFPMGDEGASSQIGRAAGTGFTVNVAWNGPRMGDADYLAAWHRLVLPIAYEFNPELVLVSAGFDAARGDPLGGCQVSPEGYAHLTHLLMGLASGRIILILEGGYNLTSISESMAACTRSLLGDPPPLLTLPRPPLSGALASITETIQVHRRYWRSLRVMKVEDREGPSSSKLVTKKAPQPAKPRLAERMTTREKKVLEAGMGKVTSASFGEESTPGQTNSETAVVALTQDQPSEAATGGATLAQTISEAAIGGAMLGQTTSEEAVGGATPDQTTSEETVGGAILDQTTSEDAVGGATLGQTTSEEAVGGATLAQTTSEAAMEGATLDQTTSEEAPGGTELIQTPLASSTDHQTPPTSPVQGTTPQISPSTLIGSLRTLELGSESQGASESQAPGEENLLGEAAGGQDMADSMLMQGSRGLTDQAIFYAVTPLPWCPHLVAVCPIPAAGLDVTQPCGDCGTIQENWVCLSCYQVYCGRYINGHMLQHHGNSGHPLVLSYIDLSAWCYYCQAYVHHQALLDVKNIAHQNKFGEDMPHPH
As to the kind of experiment: HDAC6 enzyme inhibitory assay (HDAC-Glo I/II Assay kit). To be noted: wells without enzyme = 100% inhibition, read-out: HDAC6 inhibitory rate (%) (1 μM). As for the experimental part: (§1) HDAC1/6 Enzyme Inhibitory Assay
(§2) HDAC1 enzyme and HDAC6 enzyme each prepared by transducing full length HDAC1 and HDAC6 genes into Sf-9 insect cells and purifying by GST affinity column were purchased from SignalChem. Using these enzymes, HDAC1 and/or HDAC6 enzyme inhibitory activities of the compound of the present invention were evaluated. Enzymes were used after preserved at −70° C. HDAC1 or HDAC6 enzyme inhibitory activity of the compound of the present invention was measured using HDAC-Glo™ I/II Assay kit (Promega) according to the following experimental method. The test compound diluted with assay buffer (24 mM Tris-HCl (pH 7.5), 1 mM MgCl2, 0.35 mM KCl, 135 mM NaCl, 0.6 mM Glutathione, 0.01% Tween-20) was added to a 384-well plate by each 2 μL. Then, HDAC1 or HDAC6 enzyme solution diluted with assay buffer was added thereto by each 4 μL, and the plate was incubated at room temperature for 60 min. After incubated, HDAC substrate-Developer solution prepared according to Promega protocol attached to the assay kit was added to the 384-well plate by each 2 μL, and the enzyme reaction was started. After reacting at room temperature for 20 min, luminescence level was measured using plate reader Envision (PerkinElmer). The inhibitory activity of each compound was calculated as a relative activity value when luminescence level in wells without enzyme is considered as 100% inhibition.

In another experiment the target is T2, HDAC9 enzyme (Homo sapiens, UniProt Q9UKV0).
T2 construct: transducing full length HDAC9 gene into Sf-9 insect cells; made in house; host or cells: Sf-9 insect cells
As to the kind of experiment: HDAC9 enzyme inhibitory assay (HDAC-Glo class IIa). The conditions noted are these: wells without enzyme = 100% inhibition, read-out: HDAC9 inhibitory rate (%) (1 μM). On the procedure: HDAC9 Enzyme Inhibitory Assay
Enzyme was prepared by transducing full length HDAC9 gene into Sf-9 insect cells and purifying by Ni-NTA affinity column, and HDAC9 enzyme inhibitory activity was evaluated. Enzymes were used after preserved at −70° C. HDAC9 enzyme inhibitory activity of the test compound was measured using HDAC-Glo class IIa (Promega) according to the following experimental method. The test compound diluted with assay buffer (24 mM Tris-HCl (pH 7.5), 1 mM MgCl2, 0.35 mM KCl, 135 mM NaCl, 0.6 mM Glutathione, 0.01% Tween-20) was added to a 384-well plate by each 2 μL. Then, HDAC9 enzyme solution diluted with assay buffer was added thereto by each 2 μL, and the plate was incubated at room temperature for 60 min. After incubated, HDAC substrate-Developer solution prepared according to Promega protocol was added to the 384-well plate by each 4 μL, and the enzyme reaction was started. After reacting at room temperature for 20 min, luminescence level was measured using plate reader Envision (PerkinElmer). The inhibitory activity of each compound was calculated as a relative activity value when luminescence level in wells without enzyme is considered as 100% inhibition.

For another experiment, the target named is T3, HDAC1 enzyme (Homo sapiens, UniProt Q13547).
T3 construct: transducing full length HDAC1 and HDAC6 genes into Sf-9 insect cells; GST; purchased SignalChem; host or cells: Sf-9 insect cells
Put plainly: HDAC1 enzyme inhibitory assay (HDAC-Glo I/II Assay kit). The conditions noted are these: wells without enzyme = 100% inhibition, read-out: HDAC1 inhibitory rate (%) (1 μM). As for the experimental part: as §1, §2

T2 sequence (Q9UKV0 whole entry, species assumed): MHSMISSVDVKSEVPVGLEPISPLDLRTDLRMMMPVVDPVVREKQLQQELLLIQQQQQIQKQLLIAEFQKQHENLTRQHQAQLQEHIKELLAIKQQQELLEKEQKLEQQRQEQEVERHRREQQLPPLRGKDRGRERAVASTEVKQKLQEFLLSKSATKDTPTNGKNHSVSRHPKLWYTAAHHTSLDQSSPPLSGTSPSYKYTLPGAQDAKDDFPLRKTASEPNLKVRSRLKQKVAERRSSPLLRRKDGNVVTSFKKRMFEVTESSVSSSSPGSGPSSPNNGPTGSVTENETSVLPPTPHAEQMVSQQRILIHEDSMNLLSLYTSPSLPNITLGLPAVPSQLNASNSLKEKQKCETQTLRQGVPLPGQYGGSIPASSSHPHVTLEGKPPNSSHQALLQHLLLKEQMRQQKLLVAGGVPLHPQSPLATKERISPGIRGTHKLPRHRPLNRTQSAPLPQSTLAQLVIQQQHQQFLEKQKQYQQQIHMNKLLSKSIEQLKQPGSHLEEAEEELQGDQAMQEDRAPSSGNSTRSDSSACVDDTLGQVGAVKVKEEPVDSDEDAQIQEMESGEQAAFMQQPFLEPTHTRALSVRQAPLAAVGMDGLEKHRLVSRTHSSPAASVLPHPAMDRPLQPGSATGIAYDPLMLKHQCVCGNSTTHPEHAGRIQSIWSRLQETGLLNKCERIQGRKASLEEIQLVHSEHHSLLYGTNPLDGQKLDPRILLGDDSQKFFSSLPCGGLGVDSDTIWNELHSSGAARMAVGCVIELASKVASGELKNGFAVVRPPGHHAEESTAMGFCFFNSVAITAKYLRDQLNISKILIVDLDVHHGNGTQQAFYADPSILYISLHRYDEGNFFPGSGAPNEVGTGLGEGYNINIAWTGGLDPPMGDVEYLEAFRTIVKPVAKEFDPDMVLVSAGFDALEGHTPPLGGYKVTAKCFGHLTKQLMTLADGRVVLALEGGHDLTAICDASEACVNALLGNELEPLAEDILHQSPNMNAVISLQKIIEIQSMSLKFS
T3 sequence (Q13547 whole entry): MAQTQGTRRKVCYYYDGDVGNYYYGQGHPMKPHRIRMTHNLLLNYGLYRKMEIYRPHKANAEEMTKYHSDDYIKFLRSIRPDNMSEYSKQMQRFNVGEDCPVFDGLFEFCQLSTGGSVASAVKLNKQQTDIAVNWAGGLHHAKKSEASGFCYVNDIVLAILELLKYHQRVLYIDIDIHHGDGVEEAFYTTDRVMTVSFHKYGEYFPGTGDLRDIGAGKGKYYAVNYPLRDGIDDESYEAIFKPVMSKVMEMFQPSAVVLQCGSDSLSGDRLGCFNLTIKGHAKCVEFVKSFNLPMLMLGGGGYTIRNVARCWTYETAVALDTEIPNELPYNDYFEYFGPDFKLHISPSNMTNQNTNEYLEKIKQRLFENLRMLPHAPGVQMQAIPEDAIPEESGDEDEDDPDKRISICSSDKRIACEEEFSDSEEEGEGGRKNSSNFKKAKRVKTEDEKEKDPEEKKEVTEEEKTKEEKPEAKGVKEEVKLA

On to `CN(C)c1ccc(C(=O)NCC2CCCCN2C(=O)Nc2ccc(-c3noc(C(F)(F)F)n3)cc2)cc1` (stereo not drawn) [Example 29, 2-(((4-(dimethylamino)benzoyl)amino)methyl)-N-(4-(5-(trifluoromethyl)-1,2,4-oxadiazol-3-yl)phenyl)piperidine-1-carboxamide], for which the inhibition at 1 µM worked out at 1% at HDAC6 enzyme, 88% at HDAC9 enzyme and 1% on HDAC1 enzyme.

`O=C(NCC1CCCCN1C(=O)Nc1ccc(-c2noc(C(F)(F)F)n2)cc1)c1ccc2nccn2c1` (stereo not drawn) [Example 45, N-((1-((4-(5-(trifluoromethyl)-1,2,4-oxadiazol-3-yl)phenyl)carbamoyl)piperidin-2-yl)methyl)imidazo[1,2-a]pyridine-6-carboxamide]: the inhibition at 1 µM at HDAC6 enzyme came out at 3%; on HDAC9 enzyme, 93%; at HDAC1 enzyme it was 20%.

Take `O=C(NCC1CCCCN1C(=O)Nc1ccc(-c2noc(C(F)(F)F)n2)cc1)c1ccccc1C(F)(F)F` (stereo not drawn) [Example 16, 2-(((2-(trifluoromethyl)benzoyl)amino)methyl)-N-(4-(5-(trifluoromethyl)-1,2,4-oxadiazol-3-yl)phenyl)piperidine-1-carboxamide]: the figures for the inhibition at 1 µM at HDAC6 enzyme, at HDAC9 enzyme and on HDAC1 enzyme were 1%, 57% and -2%, respectively.

In the case of `O=C(NCC1CCCCN1C(=O)Nc1ccc(-c2noc(C(F)(F)F)n2)cc1)c1ccccc1F` (stereo not drawn) [Example 4, 2-(((2-fluorobenzoyl)amino)methyl)-N-(4-(5-(trifluoromethyl)-1,2,4-oxadiazol-3-yl)phenyl)piperidine-1-carboxamide], the values for the inhibition at 1 µM on HDAC6 enzyme, on HDAC9 enzyme and at HDAC1 enzyme were 5%, 89% and 44%, respectively.

Regarding `Cn1nccc1C(=O)NC[C@H]1COCCN1C(=O)Nc1ccc(-c2noc(C(F)(F)F)n2)cc1` [Example 62, (3S)-3-((((1-methyl-1H-pyrazol-5-yl)carbonyl)amino)methyl)-N-(4-(5-(trifluoromethyl)-1,2,4-oxadiazol-3-yl)phenyl)morpholine-4-carboxamide], the inhibition at 1 µM was 6% on HDAC6 enzyme, 92% on HDAC9 enzyme and 53% at HDAC1 enzyme.

For the compound `O=C(NCC1CCCCN1C(=O)Nc1ccc(-c2noc(C(F)(F)F)n2)cc1)c1cccc(Cl)c1` (stereo not drawn) [Example 8, 2-(((3-chlorobenzoyl)amino)methyl)-N-(4-(5-(trifluoromethyl)-1,2,4-oxadiazol-3-yl)phenyl)piperidine-1-carboxamide], the values for the inhibition at 1 µM on HDAC6 enzyme, at HDAC9 enzyme and at HDAC1 enzyme were 2%, 68% and -7%, respectively.

For the compound `O=C(NCC1CCCCN1C(=O)Nc1ccc(-c2noc(C(F)(F)F)n2)cc1)c1ccc(Cl)cc1` (stereo not drawn) [Example 9, 2-(((4-chlorobenzoyl)amino)methyl)-N-(4-(5-(trifluoromethyl)-1,2,4-oxadiazol-3-yl)phenyl)piperidine-1-carboxamide], the inhibition at 1 µM at HDAC6 enzyme is 3%; at HDAC9 enzyme, 94%; at HDAC1 enzyme it was 4%.

In the case of `O=C(Cc1cccs1)NCC1CCCCN1C(=O)Nc1ccc(-c2noc(C(F)(F)F)n2)cc1` (stereo not drawn) [Example 46, 2-(((2-thienylacetyl)amino)methyl)-N-(4-(5-(trifluoromethyl)-1,2,4-oxadiazol-3-yl)phenyl)piperidine-1-carboxamide], the inhibition at 1 µM on HDAC6 enzyme amounted to 11%; at HDAC9 enzyme it was 94%; at HDAC1 enzyme it was 93%.

As for `O=C(NCC1CCCCN1C(=O)Nc1ccc(-c2noc(C(F)(F)F)n2)cc1)c1cc[n+]([O-])cc1` (stereo not drawn) [Example 37, N-((1-((4-(5-(trifluoromethyl)-1,2,4-oxadiazol-3-yl)phenyl)carbamoyl)piperidin-2-yl)methyl)isonicotinamide 1-oxide], the inhibition at 1 µM at HDAC6 enzyme is 2%; on HDAC9 enzyme, 88%; on HDAC1 enzyme it was 2%.
